Reference: article PMC8394033, “Cytocidal Antitumor Effects against Human Ovarian Cancer Cells Induced by B-Lactam Steroid Alkylators with Targeted Activity against Poly (ADP-Ribose) Polymerase (PARP) Enzymes in a Cell-Free Assay” (Biomedicines, 2021)
“And” between values parts separate entries of the source, which are not always exact repeats. Identical values can stand only once. Like-named read-outs stand apart in the source and are kept apart here. Marks after values point to notes of the source that are not given here.

Columns and labels:
MRC-5 = assay: MTT assay, selectivity on normal lung fibroblasts; conditions: for GI50: Homo sapiens, MRC5, 48 h, read-out: GI50 ±SEM (50% inhibition of cell growth, cytostatic)
OVCAR-3 [1] = conditions: human
[2] = tested on: PHA-stimulated PBMCs (T-lymphocytes) from healthy donors; conditions: human
SKOV-3 [3] = conditions: for GI50: read-out: GI50 ±SEM (50% inhibition of cell growth, cytostatic); for IC50: read-out: IC50 ±SEM (50% cytocidal effect, cytotoxic)
UWB1.289 [4] = conditions: for GI50: read-out: GI50 ±SEM (50% inhibition of cell growth, cytostatic); for IC50: read-out: IC50 ±SEM (50% cytocidal effect, cytotoxic)
[5] = tested on: PHA-stimulated PBMCs (T-lymphocytes) from healthy donors; assay: Sister chromatid exchanges (SCEs) assay, genotoxicity and PRI
SKOV-3 [6] = conditions: human
UWB1.289 [7] = conditions: human
in vitro = conditions: human
OVCAR-3 [8] = conditions: for GI50: read-out: GI50 ±SEM (50% inhibition of cell growth, cytostatic); for IC50: read-out: IC50 ±SEM (50% cytocidal effect, cytotoxic)
UWB1.289 [9] = assay: Sister chromatid exchanges (SCEs) assay, genotoxicity and PRI
UWB1.289 [10] = conditions: human; remark: listed apart in the source
PARP1 mRNA (PARP1/ACTB) = format: cell-based, human
[11] = MTT assay, selectivity on normal lung fibroblasts; conditions: human, MRC-5 normal lung fibroblasts
PARP2 mRNA (PARP2/ACTB) = assay: PARP2 mRNA expression analysis by qRT-PCR; format: cell-based, human; conditions: UWB1.289, vs untreated cells, 20 and 40 μΜ, 72 h

## C[C@]12CC[C@H](OC(=O)CCOc3ccc(N(CCCl)CCCl)cc3)CC1=CC(=O)NC1C2CC[C@]2(C)C(=O)CCC12 (stereo partly shown) [ASA-A, 7a,9a-dimethyl-2,10-dioxo-1,2,4,5,6,7,7a,7b, 8,9,9a,10,11,12,12a,12b-hexadecahydrobenzo[d]indeno [4,5-b]azepin-5-yl 3-(4-(bis(2-chloroethyl)amino)phenoxy)propanoate]
MRC-5
  TGI ±SEM (100% cell growth inhibition, cytostatic): >100 µM
  GI50: 69 ± 7.13 µM
OVCAR-3 [1]
  IC50: 47 ± 4.82 µM
[2]
  Mean SCE/Chromosome ± SD: 0.66 ± 0.04
  Mean SCEs/metaphase Mean ± SD: 30.28 ± 2.03
SKOV-3 [3]
  TGI ±SEM (100% cell growth inhibition, cytostatic): 33 ± 2.79 µM
  GI50: 15 ± 1.26 µM
UWB1.289 [4]
  TGI ±SEM (100% cell growth inhibition, cytostatic): 52 ± 4.61 µM
  GI50: 19 ± 1.83 µM
[5]
  Mean PRI ± SD: 2.18 ± 0.13
  PRI (Proliferation Rate Index): 2.13 and 2.21 and 1.98 and 2.32 and 2.26
SKOV-3 [6]
  IC50: 67 ± 7.11 µM
UWB1.289 [7]
  IC50: 71 ± 7.01 µM
In vitro
  IC50: > 100 µM
OVCAR-3 [8]
  TGI ±SEM (100% cell growth inhibition, cytostatic): 38 ± 2.95 µM
  GI50: 29 ± 3.04 µM
UWB1.289 [9]
  PRI (Proliferation Rate Index): 1.88 *
UWB1.289 [10]
  SCE/Chromosome ± SEM: 1.0 ± 0.054
  SCEs/Metaphase ± SEM: 73.78 ± 4.03

## CC(C)CCCC(C)[C@H]1CCC2C3NC(=O)C=C4C[C@@H](OC(=O)CCOc5ccc(N(CCCl)CCCl)cc5)CC[C@]4(C)C3CC[C@@]21C (stereo partly drawn) [ASA-C, 7a,9a-dimethyl-10-((R)-6-methylheptan-2-yl)-2-oxo-1,2,4,5,6,7,7a,7b,8,9,9a,10,11,12,12a,12b-hexadecahydrobenzo[d]indeno[4,5-b]azepin-5-yl 3-(4-(bis(2-chloroethyl)amino)phenoxy)propanoate]
MRC-5
  TGI ±SEM (100% cell growth inhibition, cytostatic): >100 µM
  GI50: > 100 µM
OVCAR-3 [1]
  IC50: > 100 µM
[2]
  Mean SCE/Chromosome ± SD: 0.19 ± 0.08
  Mean SCEs/metaphase Mean ± SD: 8.81 ± 0.4
SKOV-3 [3]
  TGI ±SEM (100% cell growth inhibition, cytostatic): >100 µM
  GI50: > 100 µM
UWB1.289 [4]
  TGI ±SEM (100% cell growth inhibition, cytostatic): >100 µM
  GI50: 73 ± 7.58 µM
[5]
  Mean PRI ± SD: 2.612 ± 0.13
  PRI (Proliferation Rate Index): 2.48 and 2.72 and 2.47 and 2.65 and 2.74
SKOV-3 [6]
  IC50: > 100 µM
UWB1.289 [7]
  IC50: > 100 µM
In vitro
  IC50: > 100 µM
OVCAR-3 [8]
  TGI ±SEM (100% cell growth inhibition, cytostatic): >100 µM
  GI50: > 100 µM
UWB1.289 [9]
  PRI (Proliferation Rate Index): 2.15
UWB1.289 [10]
  SCE/Chromosome ± SEM: 0.33 ± 0.02
  SCEs/Metaphase ± SEM: 24.53 ± 1.72

## NC(=O)c1cccc(N)c1 [3-AB, 3-Aminobenzamide, reference compound]
PARP1 mRNA (PARP1/ACTB)
  alterations in the PARP1/ACTB mRNA cellular content: non-significant alterations
MRC-5
  GI50: > 100 µM
MRC-5; MRC-5 normal human lung fibroblasts, 48 h treatment, MTT
  TGI ±SEM (100% cell growth inhibition, cytostatic): >100 µM
[11]
  IC50 at 48 h: > 100 µM
SKOV-3 [3]; SKOV-3, 48 h treatment, MTT
  TGI ±SEM (100% cell growth inhibition, cytostatic): >100 µM
  GI50: > 100 µM
  IC50: > 100 µM
UWB1.289 [4]; UWB1.289, 48 h treatment, MTT
  TGI ±SEM (100% cell growth inhibition, cytostatic): >100 µM
  GI50: 92 ± 13 µM
  IC50: > 100 µM
[5]; mean of 5 donors' PBMCs, 3 μM
  Mean PRI ± SD: 2.696 ± 0.12
  Mean SCE/Chromosome ± SD: 0.30 ± 0.03
  Mean SCEs/metaphase Mean ± SD: 14.03 ± 1.24
OVCAR-3 [8]; OVCAR-3, 48 h treatment, MTT
  TGI ±SEM (100% cell growth inhibition, cytostatic): >100 µM
  GI50: > 100 µM
  IC50: > 100 µM
UWB1.289 [9]; UWB1.289, 3 μM
  SCE/Chromosome ± SEM: 0.43 ± 0.025
  SCEs/Metaphase ± SEM: 31.91 ± 1.88

## O=C(c1cc(Cc2n[nH]c(=O)c3ccccc23)ccc1F)N1CCN(C(=O)C2CC2)CC1 [Olaparib]
MRC-5
  TGI ±SEM (100% cell growth inhibition, cytostatic): >100 µM
  GI50: > 100 µM
[11]
  IC50 at 48 h: > 100 µM
SKOV-3 [3]
  TGI ±SEM (100% cell growth inhibition, cytostatic): >100 µM
  GI50: > 100 µM
SKOV-3 [3]; SKOV-3, 48 h treatment, MTT
  IC50: > 100 µM
UWB1.289 [4]
  TGI ±SEM (100% cell growth inhibition, cytostatic): 85 ± 9.34 µM
  GI50: 14 ± 1.78 µM
UWB1.289 [4]; UWB1.289, 48 h treatment, MTT
  IC50: > 100 µM
[5]; Donor 1 PBMCs, 3 μM
  PRI (Proliferation Rate Index): 2.60
  SCE/Chromosome ± SEM: 0.44 ± 0.02
  SCEs/Metaphase ± SEM: 20.43 ± 1.1
[5]; Donor 2 PBMCs, 3 μM
  PRI (Proliferation Rate Index): 2.56
  SCE/Chromosome ± SEM: 0.47 ± 0.03
  SCEs/Metaphase ± SEM: 21.6 ± 1.4
[5]; Donor 3 PBMCs, 3 μM
  PRI (Proliferation Rate Index): 2.47
  SCE/Chromosome ± SEM: 0.52 ± 0.03
  SCEs/Metaphase ± SEM: 23.87 ± 1.5
[5]; Donor 4 PBMCs, 3 μM
  PRI (Proliferation Rate Index): 2.76
  SCE/Chromosome ± SEM: 0.48 ± 0.03
  SCEs/Metaphase ± SEM: 21.92 ± 1.2
[5]; Donor 5 PBMCs, 3 μM
  PRI (Proliferation Rate Index): 2.34
  SCE/Chromosome ± SEM: 0.55 ± 0.04
  SCEs/Metaphase ± SEM: 25.32 ± 1.6
[5]; mean of 5 donors' PBMCs, 3 μM
  Mean PRI ± SD: 2.546 ± 0.16
  Mean SCE/Chromosome ± SD: 0.66 ± 0.04
  Mean SCEs/metaphase Mean ± SD: 22.63 ± 1.95
OVCAR-3 [8]
  TGI ±SEM (100% cell growth inhibition, cytostatic): >100 µM
  GI50: 32 ± 4.64 µM
OVCAR-3 [8]; OVCAR-3, 48 h treatment, MTT
  IC50: > 100 µM
UWB1.289 [9]; UWB1.289, 3 μM
  PRI (Proliferation Rate Index): 1.98 *
  SCE/Chromosome ± SEM: 0.90 ± 0.06
  SCEs/Metaphase ± SEM: 66.78 ± 4.45

## CC12CCC3C(NC(=O)C=C4CC(OC(=O)CCOc5ccc(N(CCCl)CCCl)cc5)CCC43C)C1CCC(=O)N2 (stereo not shown) [ASA-B, 11a,13a-dimethyl-2,6-dioxo-2,3,4,4a,4b,5,6,8,9,10,11,11a,11b,12,13,13a-hexadecahydro-1H-benzo[4,5]azepino [2,3-f]quinolin-9-yl 3-(4-(bis(2-chloroethyl)amino)phenoxy)propanoate]
MRC-5
  TGI ±SEM (100% cell growth inhibition, cytostatic): >100 µM
  GI50: 86 ± 9.95 µM
OVCAR-3 [1]
  IC50: > 100 µM
[2]
  Mean SCE/Chromosome ± SD: 0.86 ± 0.06
  Mean SCEs/metaphase Mean ± SD: 39.54 ± 2.84
PARP2 mRNA (PARP2/ACTB)
  increase of the PARP2/ACTB mRNA ratio: 140- to150 fold
SKOV-3 [3]
  TGI ±SEM (100% cell growth inhibition, cytostatic): 51 ± 4.46 µM
  GI50: 24 ± 2.42 µM
UWB1.289 [4]
  TGI ±SEM (100% cell growth inhibition, cytostatic): 35 ± 3.63 µM
  GI50: 10 ± 0.81 µM
[5]
  Mean PRI ± SD: 2.23 ± 0.12
  PRI (Proliferation Rate Index): 2.30 and 2.18 and 2.04 and 2.34 and 2.29
SKOV-3 [6]
  IC50: 98 ± 8.97 µM
UWB1.289 [7]
  IC50: 54 ± 5.11 µM
In vitro
  IC50: > 100 µM
OVCAR-3 [8]
  TGI ±SEM (100% cell growth inhibition, cytostatic): 81 ± 7.82 µM
  GI50: 44 ± 5.04 µM
UWB1.289 [9]
  PRI (Proliferation Rate Index): 1.77 *
UWB1.289 [10]
  SCE/Chromosome ± SEM: 1.17 ± 0.07
  SCEs/Metaphase ± SEM: 86.76 ± 4.97
